These results are taken from US20180338918A1, “TEMSIROLIMUS LIPOSOME AND PREPARATION METHOD THEREOF” (JIANGSU TASLY DIYI PHARMACEUTICAL CO., LTD., priority 2017, published 2018).

The nature of data set [1]: Sulfobutyl ether-β-cyclodextrin inclusion of temsirolimus, appearance of the solution. The conditions noted are these: 1 mg/mL temsirolimus; application amount of sulfobutyl ether-β-cyclodextrin 50%. It counts as physicochemical. The procedure: The druggabilities of sulfobutyl ether-β-cyclodextrin inclusion complex, liposome, and fat emulsion were investigated. The drug loading was fixed at 1 mg/ml for parallel comparisons. The main study protocol and results were summarized as follows:
Formula amount of sulfobutyl ether-β-cyclodextrin was weighed, and dissolved by adding quantum satis water for injection, and setting the volume thereof to 100 mL; formula amount of temsirolimus was weighed, added into the aqueous solution of sulfobutyl ether-β-cyclodextrin, and stirred them at room temperature for 2 h.
Formula amount of sulfobutyl ether-β-cyclodextrin was weighed, dissolved by adding quantum satis water for injection to give an aqueous phase; formula amounts of temsirolimus and organic vehicle (anhydrous ethanol, or propanediol, or PEG4000) were weighed, dissolved by water-bath ultrasound to give an organic phase; the organic phase was poured into the aqueous phase with stirring, and mixed uniformly, and setting the volume thereof to full volume with water for injection, and thus the formulations were obtained.

Data set [2] can be described thus: Solubility of temsirolimus in common oils for injection (medium chain oil, soybean oil). It counts as physicochemical. The conditions noted are these: for Dissolution state: 30 min. From the text: Investigation of the solubility of temsirolimus in common oils for injection (medium chain oil, soybean oil)
The conditions of data set [3]: background statement; cited from earlier work.
The test system of another data set is mice. The conditions noted are these: injected via tail vein of mice, compared with Tween 80; cited from earlier work.

Take `CO[C@H]1C[C@@H]2CC[C@@H](C)[C@@](O)(O2)C(=O)C(=O)N2CCCC[C@H]2C(=O)O[C@H]([C@H](C)C[C@@H]2CC[C@@H](OC(=O)C(C)(CO)CO)[C@H](OC)C2)CC(=O)[C@H](C)/C=C(\C)[C@@H](O)[C@@H](OC)C(=O)[C@H](C)C[C@H](C)/C=C/C=C/C=C/1C` [temsirolimus, 42-bis(hydroxymethyl) propionate of sirolimus]: in data set [1], the “Inclusion of temsirolimus by sulfobutyl ether-β-cyclodextrin” value was “cannot be included”. Further, the Dissolution state entry in data set [2] (Medium chain oil, 10 mg/g, 60° C.) is “Severe”; in data set [2] (Medium chain oil, 10 mg/g, 70° C.), “Severe”; in data set [2] (Medium chain oil, 10 mg/g, 80° C.), “Severe”; in data set [2] (Medium chain oil, 20 mg/g, 60° C.), “Severe”; in data set [2] (Medium chain oil, 20 mg/g, 70° C.), “Severe”; in data set [2] (Medium chain oil, 20 mg/g, 80° C.), “Severe”. The Dissolution state entry in data set [2] (Medium chain oil, 30 mg/g, 60° C.) was “Severe”; in data set [2] (Medium chain oil, 30 mg/g, 70° C.), “Severe”; in data set [2] (Medium chain oil, 30 mg/g, 80° C.) it was “Severe”; in data set [2] (Medium chain oil, 40 mg/g, 60° C.), “Severe”; in data set [2] (Medium chain oil, 40 mg/g, 70° C.) it was “Severe”; in data set [2] (Medium chain oil, 40 mg/g, 80° C.), “Severe”. In addition, the Dissolution state entry in data set [2] (Soybean oil, 10 mg/g, 60° C.) is recorded as “Severe”; in data set [2] (Soybean oil, 10 mg/g, 70° C.), “Severe”; in data set [2] (Soybean oil, 10 mg/g, 80° C.) it was “Severe”. The “Solubilities in the medium chain oil and soybean oil” value in data set [2] (summary in words) was “poor”. In data set [3], the Solubility in water entry was “almost insoluble in water”.
In the case of polyethylene glycol stearate 15, the Acute toxicity entry in the data set on mice is “great, even greater than that of Tween 80”.
